Where two headings read alike, the source gives them in different places. Each block holds one compound with its values, some of them ahead of it.
Legend:
[1] = Testing the stability of a TCO compound under chemical conditions (HPLC-MS/PDA, GC-MS); type: physicochemical
Description: (§1) The feasibility to use the TCO group as a protective group in chemistry was studied by testing the stability of a range of TCO derivatives as model compounds under various conditions, and following the deprotection upon reaction with a tetrazine derivative under these conditions.
Typical Example for Testing the Stability of a TCO Compound
The TCO stock solution (10 μL 25 mM; 2.5*10^−7 mol) was added to a solution of the specific condition (100 μL). The mixture was stirred at the specific condition for a certain amount of time, and then the fate of the TCO compound was monitored by HPLC-MS/PDA analysis and/or GC-MS analysis, and an estimation of its stability was made.
(§2) A) in acetonitrile with 5 equivalents of pyridine per TCO at 20° C.
(§3) B) in acetonitrile with 5 equivalents of DIPEA per TCO at 20° C.
(§4) C) in acetonitrile with 5 equivalents of piperidine per TCO at 20° C.
(§5) D) in acetonitrile with 5 equivalents of n-butylamine per TCO at 20° C.
(§6) E) in acetonitrile with 5 equivalents of 2-mercaptoethanol per TCO at 20° C.
(§7) F) in tetrahydrofuran with 5 equivalents of triphenylphosphine per TCO at 20° C.
(§8) G) in acetonitrile with 5 equivalents of DCC per TCO at 20° C.
(§9) H) in acetonitrile with 5 equivalents of PyBOP per TCO at 20° C.
(§10) I) in acetonitrile with 1 v % of formic acid at 20° C.
(§11) J) in chloroform at 20° C.
(§12) K) in chloroform with 1 v % of formic acid at 20° C.
(§13) L) in chloroform with 1 v % of trifluoroacetic acid at 20° C.
(§14) M) in chloroform with 10 v % of trifluoroacetic acid at 20° C.
(§15) N) in chloroform with 33 v % of trifluoroacetic acid at 20° C.
(§16) Z) in 25% acetonitrile in water at 20° C.

[2] = Testing the feasibility of the deprotection of TCO compounds upon reaction with tetrazine; conditions: 20° C.
[3] = as above
Description: as §1
Typical Example for Testing the Feasibility of the Deprotection
The TCO stock solution (10 μL 25 mM in acetonitrile; 2.5*10^−7 mol) was added to a solution of the specific condition (100 μL). A solution of 3,6-dimethyl-1,2,4,5-tetrazine (8, 20 μL 25 mM in acetonitrile; 5.0*10^−7 mol) was added, and the mixture was stirred at the specific condition for a certain amount of time. The reaction was monitored by HPLC-MS/PDA analysis and/or GC-MS analysis, and the percentage of deprotection was estimated.
as §2, §3, §4, §5, §6, §7, §8, §9, §10, §11, §12, §13, §14, §15, §16

[4] = Binding of TCO-protected doxorubicin to beads coated with BSA-tetrazine and doxorubicin release (HPLC); conditions: PBS, 37° C.
Description: Tetrazine functionalization of a BSA-coated particle has been described in J. Nucl. Med. 2013, 54, 1989-1995. Briefly, a solution of BSA (bovine serum albumin; 0.7 mg) in PBS was mixed with a 10 mg/mL solution of a bis-pyridyl-tetrazine-NHS derivative in DMF (35 μL, 30 eq. with respect to BSA) and the pH was adjusted to 9.0 with 1 M sodium carbonate buffer. The solution (125 μL total) was incubated at room temperature for 30 min then the unreacted tetrazine was removed from the solution by using a Zeba desalting spin column (7 kDa MW cut-off) pre-washed with PBS. UV measurements confirmed the presence of 12 tetrazine moieties per BSA molecule.
The eluate containing BSA-tetrazine in PBS was added to a 350 μL suspension of polystyrene beads (Polybeads, 0.5 μm, Polysciences) in H2O and the resulting suspension was incubated at +4° C. for 1 h on an end-over-end rotating mixer (10 rpm). After incubation, the suspension of beads coated with BSA-tetrazine was centrifuged at 12,000 rpm for 4 min. The supernatant was carefully removed and the pellet was resuspended in 1.5 mL PBS by using a tip sonicator at low power (Sonics VibraCell, 4×5 sec pulses, 40% of power). The centrifuging-resuspension cycle was repeated 2 times, after which the bead pellet was resuspended in 200 μL PBS and reacted with 7 nmol of TCO-protected doxorubicin (TCO-3-Doxorubin, 1 mM in DMSO).
After 5 min incubation at 37° C. in a thermomixer (350 rpm), the beads were removed by centrifugation and the supernatant was analyzed by HPLC on an Agilent Techologies system (1100 series) equipped with a fluorescence detector with λhex=485 nm and λem=590 nm. The sample was loaded on an Eclipse XDB-C18 column (5 μm, 4.6×150 mm^2, Agilent) which was eluted isocratically with 30% (v/v) acetonitrile in H2O containing 0.1% TFA (v/v) at 1 mL/min. HPLC analysis of the supernatant confirmed that ca. 75% of TCO-doxorubicin was bound to the beads.
The bead pellet was resuspended in 1.5 mL PBS and centrifuged twice to eliminate unbound TCO-doxorubicin. Subsequently, the beads were resuspended in 400 μL PBS and incubated at 37° C. At various times, aliquots of the supernatant were analyzed by HPLC. The chromatographic profiles (FIG. 2) show release of free doxorubicin (Rt=6.2 min) from the beads with time (>45% after 3 h; complete within 24 h).

[5] = with 5 eq. of DIPEA in MeCN for 16 h, 20° C.
[6] = with 5 eq. of PyBOP in MeCN for 16 h, 20° C.
[7] = 0.1 M HCOOH buffer, pH = 2.0 for 2 day, 20° C.
[8] = 0.1 M NH3 buffer, pH = 11 for 5 day, 20° C.
[9] = 0.1 M NH4OAc buffer, pH = 7.0 for 5 day, 20° C.
[10] = 0.1 M NH4OAc buffer, pH = 8.0 for 8 day, 20° C.
[11] = 0.1 M NH4OAc buffer, pH = 10.0 for 8 day, 20° C.
[12] = 10% MeCN in H2O at 70° C. for 5 day
[13] = A) in acetonitrile with 5 equivalents of pyridine per TCO at 20° C., for 1 h
[14] = B) in acetonitrile with 5 equivalents of DIPEA per TCO at 20° C., for 1 h
[15] = G) in acetonitrile with 5 equivalents of DCC per TCO at 20° C., for 1 h
[16] = I) in acetonitrile with 1 v % of formic acid at 20° C., for 1 h
[17] = J) in chloroform at 20° C., for 1 h
[18] = Z) in 25% acetonitrile in water at 20° C., for 1 h
[19] = tetrazine 8; A) in acetonitrile with 5 equivalents of pyridine per TCO at 20° C., for 1 h
[20] = tetrazine 8; B) in acetonitrile with 5 equivalents of DIPEA per TCO at 20° C., for 1 h
[21] = tetrazine 8; G) in acetonitrile with 5 equivalents of DCC per TCO at 20° C., for 1 h
[22] = tetrazine 8; I) in acetonitrile with 1 v % of formic acid at 20° C., for 1 h
[23] = tetrazine 8; J) in chloroform at 20° C., for 1 h
[24] = tetrazine 8; Z) in 25% acetonitrile in water at 20° C., for 1 h

SMILES: NC1CC/C=C/CCC1NC(=O)Oc1ccccc1 (centres unmarked)
half-life ([1]; 0.1 M NH4OAc buffer, pH = 7.0, 20° C., read-out: Stability of TCO, t1/2): 80 h | half-life ([1]; 0.1 M NH4OAc buffer, pH = 8.0, 20° C., read-out: Stability of TCO, t1/2): 17 h | half-life at 2.3 mM ([1]; 0.1 M NH4OAc buffer, pH = 9.0, 20° C., read-out: Stability of TCO, t1/2): 5.3 h | Stability of TCO: cyclization [1, 5]: 6.7% | Stability of TCO: cyclization ([1]; with 5 eq. of HCOOH in MeCN for 16 h, 20° C.): 1.9% | Stability of TCO: cyclization [1, 6]: 5.9% | Stability of TCO: cyclization ([1]; with 5 eq. of pyridine in MeCN for 16 h, 20° C.): 2.6% | Deprotection (%) ([2]; with 5 eq. of HCOOH in MeCN for 16 h): 33.9% | Deprotection (%) ([2]; with 5 eq. of pyridine in MeCN for 16 h): 71.7% | Deprotection (%) [3, 5]: 98.8% | Deprotection (%) [3, 6]: 24.4%

SMILES: O=C(NCc1cccc2ccccc12)OC1/C=C/CCCCC1 (centres unmarked)
Stability of TCO [1, 13]: stable stable stable stable stable stable stable stable stable stable stable stable stable stable | Stability of TCO [1, 14]: stable stable stable stable stable stable stable stable stable stable stable stable stable stable | Stability of TCO ([1]; C) in acetonitrile with 5 equivalents of piperidine per TCO at 20° C., for 1 h): stable stable stable stable stable stable stable stable stable stable stable stable stable stable | Stability of TCO ([1]; D) in acetonitrile with 5 equivalents of n-butylamine per TCO at 20° C., for 1 h): stable stable stable stable stable stable stable stable stable stable stable stable stable stable | Stability of TCO ([1]; E) in acetonitrile with 5 equivalents of 2-mercaptoethanol per TCO at 20° C., for 1 h): stable stable stable stable stable stable stable stable stable stable stable stable stable stable | Stability of TCO ([1]; F) in tetrahydrofuran with 5 equivalents of triphenylphosphine per TCO at 20° C., for 1 h): stable stable stable stable stable stable stable stable stable stable stable stable stable stable | Stability of TCO [1, 15]: stable stable stable stable stable stable stable stable stable stable stable stable stable stable | Stability of TCO ([1]; H) in acetonitrile with 5 equivalents of PyBOP per TCO at 20° C., for 1 h): stable stable stable stable stable stable stable stable stable stable stable stable stable stable | Stability of TCO [1, 16]: stable stable stable stable stable stable stable stable stable stable stable stable stable stable | Stability of TCO [1, 17]: stable stable stable stable stable stable stable stable stable stable stable stable stable stable | Stability of TCO ([1]; K) in chloroform with 1 v % of formic acid at 20° C., for 1 h): stable stable stable stable stable stable stable stable stable stable stable stable stable stable | Stability of TCO ([1]; L) in chloroform with 1 v % of trifluoroacetic acid at 20° C., for 1 h): stable stable stable stable stable stable stable stable stable stable stable stable stable stable | Stability of TCO ([1]; M) in chloroform with 10 v % of trifluoroacetic acid at 20° C., for 1 h): stable stable stable stable stable stable stable stable stable stable stable stable stable stable | Stability of TCO [1, 18]: stable stable stable stable stable stable stable stable stable stable stable stable stable stable | Deprotection (%) [3, 19]: 87% | Deprotection (%) [3, 20]: 58% | Deprotection (%) ([3]; tetrazine 8; C) in acetonitrile with 5 equivalents of piperidine per TCO at 20° C., for 1 h): 48% | Deprotection (%) ([3]; tetrazine 8; D) in acetonitrile with 5 equivalents of n-butylamine per TCO at 20° C., for 1 h): 47% | Deprotection (%) ([3]; tetrazine 8; E) in acetonitrile with 5 equivalents of 2-mercaptoethanol per TCO at 20° C., for 1 h): 67% | Deprotection (%) ([3]; tetrazine 8; F) in tetrahydrofuran with 5 equivalents of triphenylphosphine per TCO at 20° C., for 1 h): 75% | Deprotection (%) [3, 21]: 74% | Deprotection (%) ([3]; tetrazine 8; H) in acetonitrile with 5 equivalents of PyBOP per TCO at 20° C., for 1 h): 74% | Deprotection (%) [3, 22]: 93% | Deprotection (%) [3, 23]: 73% | Deprotection (%) ([3]; tetrazine 8; K) in chloroform with 1 v % of formic acid at 20° C., for 1 h): 98% | Deprotection (%) ([3]; tetrazine 8; L) in chloroform with 1 v % of trifluoroacetic acid at 20° C., for 1 h): 99% | Deprotection (%) ([3]; tetrazine 8; M) in chloroform with 10 v % of trifluoroacetic acid at 20° C., for 1 h): 99% | Deprotection (%) [3, 24]: 85%

SMILES: COc1cccc2c1C(=O)c1c(O)c3c(c(O)c1C2=O)C[C@@](O)(C(=O)CO)C[C@@H]3O[C@H]1C[C@H](N)[C@H](O)[C@H](C)O1 [doxorubicin, reference compound]
time to complete release of free doxorubicin from the beads [4]: ≤ 24 h | release of free doxorubicin from the beads ([4]; after 3 h): > 45%

More lines, main results first:

Stability of TCO [1, 7]: stable | Stability of TCO: cyclization [1, 8]: < 5% | Stability of TCO [1, 9]: stable | Stability of TCO [1, 10]: stable | Stability of TCO ([1]; 0.1 M NH4OAc buffer, pH = 9.0 for 8 day, 20° C.): stable | Stability of TCO [1, 11]: stable | Stability of TCO: cyclization [1, 12]: <5% | Stability of TCO ([1]; 10% MeCN in H2O for 5 day, 20° C.): stable
SMILES: COc1cc(COC(=O)NC2CC/C=C/CCC2N)cc(OC)c1OC (centres unmarked)
Deprotection (%) ([2]; 0.1 M NH4OAc buffer, pH = 9.0 for 8 day): 25% | Deprotection (%) ([2]; 10% MeCN in H2O for 5 day): 0% | Deprotection (%) [3, 7]: 0% | Deprotection (%) [3, 8]: 87% | Deprotection (%) [3, 9]: 0% | Deprotection (%) [3, 10]: 0% | Deprotection (%) [3, 11]: 81% | Deprotection (%) [3, 12]: 50%

Stability of TCO [1, 13]: stable stable stable stable | Stability of TCO [1, 14]: stable stable stable stable | Stability of TCO [1, 15]: stable stable stable stable | Stability of TCO [1, 16]: stable stable stable stable
SMILES: Cc1cc(C)cc(NC(=O)OC2/C=C/CCCCC2)c1 (centres unmarked) [drawing 126]
Deprotection (%) [3, 19]: 14% | Deprotection (%) [3, 20]: 4% | Deprotection (%) [3, 21]: 61% | Deprotection (%) [3, 22]: 97%

Stability of TCO [1, 17]: stable stable | Stability of TCO [1, 18]: stable stable
SMILES: O=C(Cc1ccccc1)C(C(=O)OC1/C=C/CCCCC1)c1ccccc1 (centres unmarked)
Deprotection (%) [3, 23]: 95% | Deprotection (%) [3, 24]: 70%

Stability of TCO [1, 18]: stable
SMILES: O=C(OC1/C=C/CCCCC1)c1ccc([N+](=O)[O-])cc1 (centres unmarked) [drawing 118]
Deprotection (%) [3, 24]: 66%

Reference: US10927139B2, “Chemically cleavable group” (Tagworks Pharmaceuticals B.V., priority 2012, dated 2021)
